Laboratory results from patent publication US12187709B2 (Genentech, Inc., priority 2021, dated 2025).

Key:
Cbl-b = Cbl-b (Homo sapiens (Human), UniProt Q13191); test: Cbl-b LCK Ub TR-FRET assay (Cbl-b Lck HTRF); assay type: biochemical; conditions: for IC50: Cbl-b LCK Ub TR-FRET; for fold-selectivity (Cbl-b over C-cbl) / (fold-selectivity) Cbl-b and C-Cbl Selectivity: ratio C-cbl Lck HTRF IC50 / Cbl-b Lck HTRF IC50
Outline: (§1)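 Detection reagents added, brief spin, 20 min RT. IC50 fit normalized to no-LCK (low) and DMSO (high) controls.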

c-Cbl = c-Cbl (Homo sapiens (Human), UniProt P22681); test: C-Cbl LCK Ub TR-FRET assay (C-cbl Lck HTRF); assay type: biochemical
Outline: as §1

[1] = target: Human Cbl-b (residues 40-426) (Homo sapiens (Human), UniProt Q13191); test: Cbl-b SPR assay; assay type: binding; conditions: for Fold of selectivity: C-cbl SPR Kd vs Cbl-b SPR Kd; for Kd: SPR, 20° C.
Outline: (§2)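 Values derive from a 1:1 model fitted to multicycle kinetics on captured protein (1300-1500 RU), using six 2-fold concentrations, 60 s contact and dissociation of 120-1200 s. In the chaser format, kd comes from a single-exponential fit of % site occupancy over time.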

c-Cbl (residues 47-435) = c-Cbl (residues 47-435) (Homo sapiens (Human), UniProt P22681); test: c-Cbl SPR assay; assay type: binding; conditions: 20° C.
Outline: as §2

Sequence of c-Cbl (residues 47-435) (P22681 47-435): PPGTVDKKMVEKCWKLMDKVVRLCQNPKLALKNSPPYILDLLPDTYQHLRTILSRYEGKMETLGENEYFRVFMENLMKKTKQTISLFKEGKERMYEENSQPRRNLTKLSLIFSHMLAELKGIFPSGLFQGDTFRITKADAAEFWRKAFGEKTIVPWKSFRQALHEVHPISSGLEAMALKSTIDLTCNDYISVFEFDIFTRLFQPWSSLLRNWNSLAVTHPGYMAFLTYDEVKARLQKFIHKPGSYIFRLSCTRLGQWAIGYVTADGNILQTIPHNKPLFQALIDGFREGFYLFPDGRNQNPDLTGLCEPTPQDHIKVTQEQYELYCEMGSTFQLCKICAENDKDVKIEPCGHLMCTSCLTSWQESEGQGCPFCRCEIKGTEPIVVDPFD
Sequence of c-Cbl (P22681 47-435): as above
Sequence of Human Cbl-b (residues 40-426) (Q13191 40-426): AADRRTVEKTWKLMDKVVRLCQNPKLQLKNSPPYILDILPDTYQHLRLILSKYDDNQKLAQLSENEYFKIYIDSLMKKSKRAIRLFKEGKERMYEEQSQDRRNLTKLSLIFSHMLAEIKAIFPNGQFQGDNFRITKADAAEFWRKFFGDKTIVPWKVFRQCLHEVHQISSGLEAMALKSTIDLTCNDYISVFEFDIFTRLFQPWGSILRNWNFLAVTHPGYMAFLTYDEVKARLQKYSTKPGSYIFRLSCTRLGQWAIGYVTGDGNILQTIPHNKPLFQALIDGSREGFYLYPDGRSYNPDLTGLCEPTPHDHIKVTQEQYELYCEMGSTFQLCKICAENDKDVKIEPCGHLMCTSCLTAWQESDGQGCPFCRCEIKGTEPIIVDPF
Sequence of Cbl-b (Q13191 40-426): as above

IC50 (Cbl-b) [µM] | fold-selectivity (Cbl-b over C-cbl) (Cbl-b) [x] | IC50 (c-Cbl) [µM] | Fold of selectivity [1] [×] | Kd [1] [µM] | Kd (c-Cbl (residues 47-435)) [µM] | IC50 (Cbl-b; Example 121) [µM] | (fold-selectivity) Cbl-b and C-Cbl Selectivity (Cbl-b) [x] | SMILES
0.0059 | 2.5 | 0.014 | 26 | 0.00085 | 0.022 | – | – | Cn1cnnc1[C@]1(c2cccc(N3Cc4c(cc(CNC5(C)CCC5)cc4C(F)(F)F)C3=O)c2)C[C@@H](OC(F)F)C1 [Compound 334, 2-(3-((1r,3r)-3-(difluoromethoxy)-1-(4-methyl-4H-1,2,4-triazol-3-yl)cyclobutyl)phenyl)-6-(((1-methylcyclobutyl)amino)methyl)-4-(trifluoromethyl)isoindolin-1-one]
0.0088 | 3.0 | 0.026 | 17 | 0.0026 | 0.045 | – | – | Cn1cnnc1[C@]1(c2cccc(N3Cc4c(cc(CNC5(C)CCC5)cc4C(F)(F)F)C3=O)c2)C[C@H](OC(F)F)C1 [Compound 335, 2-(3-((1s,3s)-3-(difluoromethoxy)-1-(4-methyl-4H-1,2,4-triazol-3-yl)cyclobutyl)phenyl)-6-(((1-methylcyclobutyl)amino)methyl)-4-(trifluoromethyl)isoindolin-1-one]
0.0074 | 1.2 | 0.0091 | 4.1 | 0.0032 | 0.013 | – | – | CCNc1cc([C@]2(c3nncn3C)C[C@H](C)C2)cc(N2Cc3c(cc(CNC4(C)CCC4)cc3C(F)(F)F)C2=O)c1F [Compound 336, 2-(3-(ethylamino)-2-fluoro-5-((1r,3r)-3-methyl-1-(4-methyl-4H-1,2,4-triazol-3-yl)cyclobutyl)phenyl)-6-(((1-methylcyclobutyl)amino)methyl)-4-(trifluoromethyl)isoindolin-1-one]
0.0062 | 1.2 | 0.0078 | 3.4 | 0.0019 | 0.0065 | – | – | CCNc1cc([C@]2(c3nncn3C)C[C@@H](C)C2)cc(N2Cc3c(cc(CNC4(C)CCC4)cc3C(F)(F)F)C2=O)c1F [Compound 337, 2-(3-(ethylamino)-2-fluoro-5-((1s,3s)-3-methyl-1-(4-methyl-4H-1,2,4-triazol-3-yl)cyclobutyl)phenyl)-6-(((1-methylcyclobutyl)amino)methyl)-4-(trifluoromethyl)isoindolin-1-one]
0.11 | 10 | 1.1 | 24 | 0.082 | 1.9 | – | – | Cn1cnnc1[C@]1(c2cccc(N3Cc4c(cc(CNC5(C)CCC5)cc4C(F)(F)F)C3=O)c2)C[C@]2(CCCO2)C1 [Compound 340, 2-(3-((2s, 4r)-2-(4-methyl-4H-1,2,4-triazol-3-yl)-5-oxaspiro[3.4]octan-2-yl)phenyl)-6-(((1-methylcyclobutyl)amino)methyl)-4-(trifluoromethyl) isoindolin-1-one]
0.013 | 8.4 | 0.1 | 11 | 0.011 | 0.12 | – | – | Cn1cnnc1[C@]1(c2cccc(N3Cc4c(cc(CNC5(C)CCC5)cc4C(F)(F)F)C3=O)c2)C[C@@]2(CCCO2)C1 [Compound 341, 2-(3-((2r, 4s)-2-(4-methyl-4H-1,2,4-triazol-3-yl)-5-oxaspiro [3.4]octan-2-yl)phenyl)-6-(((1-methylcyclobutyl)amino)methyl)-4-(trifluoromethyl) isoindolin-1-one]
0.04 | 4.6 | 0.19 | 5.4 | 0.035 | 0.2 | – | – | CC(=O)[C@H]1C[C@@](c2cccc(N3Cc4c(cc(CNC5(C)CCC5)cc4C(F)(F)F)C3=O)c2)(c2nncn2C)C1 [Compound 346, 2-(3-((1s,3s)-3-acetyl-1-(4-methyl-4H-1,2,4-triazol-3-yl)cyclobutyl)phenyl)-6-(((1-methylcyclobutyl)amino)methyl)-4-(trifluoromethyl)isoindolin-1-one]
0.01 | 3 | 0.03 | 11 | 0.003 | 0.033 | – | – | CC(=O)[C@H]1C[C@](c2cccc(N3Cc4c(cc(CNC5(C)CCC5)cc4C(F)(F)F)C3=O)c2)(c2nncn2C)C1 [Compound 347, 2-(3-((1r,3r)-3-acetyl-1-(4-methyl-4H-1,2,4-triazol-3-yl)cyclobutyl)phenyl)-6-(((1-methylcyclobutyl)amino)methyl)-4-(trifluoromethyl)isoindolin-1-one]
0.013 | 3.2 | 0.042 | 9 | 0.0042 | 0.039 | – | – | Cn1cnnc1[C@]1(c2cccc(N3Cc4c(cc(CNC5(C)CCC5)cc4C(F)(F)F)C3=O)c2)C[C@H](OCF)C1 [Compound 370, 2-(3-((1s,3s)-3-(fluoromethoxy)-1-(4-methyl-4H-1,2,4-triazol-3-yl)cyclobutyl)phenyl)-6-(((1-methylcyclobutyl)amino)methyl)-4-(trifluoromethyl)isoindolin-1-one]
0.0083 | 5.0 | 0.042 | 7.8 | 0.048 | 0.38 | – | – | Cn1cnnc1[C@]1(c2cccc(N3Cc4c(cc(CNC5(C)CCC5)cc4C(F)(F)F)C3=O)c2)C[C@@H](OCF)C1 [Compound 371, 2-(3-((1r,3r)-3-(fluoromethoxy)-1-(4-methyl-4H-1,2,4-triazol-3-yl)cyclobutyl)phenyl)-6-(((1-methylcyclobutyl)amino)methyl)-4-(trifluoromethyl)isoindolin-1-one]
0.0066 | 2.0 | 0.014 | 11 | 0.00095 | 0.01 | – | – | CC[C@H]1C[C@@](c2cccc(N3Cc4c(Cl)cc(CNC5(C)CCC5)cc4C3=O)c2)(c2nncn2C)C1 [Compound 374, 4-chloro-2-(3-((1r,3s)-3-ethyl-1-(4-methyl-4H-1,2,4-triazol-3-yl)cyclobutyl)phenyl)-6-(((1-methylcyclobutyl)amino)methyl)isoindolin-1-one]
0.0064 | 2.5 | 0.016 | 11 | 0.001 | 0.011 | – | – | CC[C@H]1C[C@](c2cccc(N3Cc4c(Cl)cc(CNC5(C)CCC5)cc4C3=O)c2)(c2nncn2C)C1 [Compound 375, 4-chloro-2-(3-((1s,3r)-3-ethyl-1-(4-methyl-4H-1,2,4-triazol-3-yl)cyclobutyl)phenyl)-6-(((1-methylcyclobutyl)amino)methyl)isoindolin-1-one]
0.11 | 2.6 | 0.29 | 2.4 | 0.11 | 0.32 | – | – | CCCN1CC(c2cc3c(c(C(F)(F)F)c2)CN(c2cccc([C@H](c4nncn4C)C4COC4)c2)C3=O)C1 [Compound 386, (R)-2-(3-((4-methyl-4H-1,2,4-triazol-3-yl)(oxetan-3-yl)methyl)phenyl)-6-(1-propylazetidin-3-yl)-4-(trifluoromethyl)isoindolin-1-one]
– | – | 0.077 | 7.7 | 0.0094 | 0.075 | 0.015 | 5.3 | Cn1cnnc1[C@]1(c2cccc(N3Cc4c(cc(CNC5(C)CCC5)cc4C(F)(F)F)C3=O)c2)C[C@@](O)(C(F)F)C1 [Compound 405, 2-(3-((1s,3s)-3-(difluoromethyl)-3-hydroxy-1-(4-methyl-4H-1,2,4-triazol-3-yl)cyclobutyl)phenyl)-6-(((1-methylcyclobutyl)amino)methyl)-4-(trifluoromethyl)isoindolin-1-one]
– | – | 0.05 | 7.7 | 0.01 | 0.077 | 0.0094 | 5.2 | CO[C@H]1C[C@](c2cccc(N3Cc4c(cc(CNC5CCC5)cc4C(F)(F)F)C3=O)c2)(c2nncn2C)C1 [Compound 414, 6-((cyclobutylamino)methyl)-2-(3-((1r,3r)-3-methoxy-1-(4-methyl-4H-1,2,4-triazol-3-yl)cyclobutyl)phenyl)-4-(trifluoromethyl)isoindolin-1-one]
– | – | 0.048 | 13 | 0.005 | 0.063 | 0.011 | 4.2 | CO[C@H]1C[C@](c2cccc(N3Cc4c(cc(CNCC5CC5)cc4C(F)(F)F)C3=O)c2)(c2nncn2C)C1 [Compound 415, 6-(((cyclopropylmethyl)amino)methyl)-2-(3-((1r,3r)-3-methoxy-1-(4-methyl-4H-1,2,4-triazol-3-yl)cyclobutyl)phenyl)-4-(trifluoromethyl)isoindolin-1-one]
– | – | 0.011 | 13 | 0.00087 | 0.012 | 0.0075 | 1.5 | CO[C@H]1C[C@](c2cccc(N3Cc4c(cc(CNCC5CCC5)cc4C(F)(F)F)C3=O)c2)(c2nncn2C)C1 [Compound 416, 6-(((cyclobutylmethyl)amino)methyl)-2-(3-((1r,3r)-3-methoxy-1-(4-methyl-4H-1,2,4-triazol-3-yl)cyclobutyl)phenyl)-4-(trifluoromethyl)isoindolin-1-one]
